Series [1] can be described thus: Metabolic stability in human hepatic microsome. Particulars: microsomes. Type of series: in vitro ADME.
A short description of series [2]: PAMPA (parallel artificial membrane permeability assay). Type of series: in vitro ADME. Particulars: PAMPA. The method in brief:
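Artificial membrane was 10% (w/v) egg lecithin plus 0.5% (w/v) cholesterol in dodecane on a PVDF filter. A 10 mM DMSO stock was added at 0.5% (v/v) to donor buffer (50 mM MOPSO, pH 6.5, 5.0% glycocholic acid). After 18 h at 37 °C, LC/MS or LC/UV gave donor and acceptor levels for Pe.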
In general terms: PAMPA measures passive passage across an artificial lipid membrane.

[3] abbreviates: pH 7.4, human hepatic microsome, NADPH(+), read-out: CL NADPH(+).
The mark [4] stands for this setting: membrane permeation rate (Pe), 50 mM MOPSO buffer pH 6.5 with 5.0% glycocholic acid, 37° C., 18 hours, read-out: iPAMPA Pe.

Read-outs that look alike come from different tables or passages of the source. Starred links: 1 amine or outer side, 2 acyl side, 3 side chain; linkers in the order of their positions; H or OH if unused. Positions of bridges follow the written chain, without caps; N, C: chain ends. Non-standard residues stand in square brackets, D forms with d. Residues, ends and D or L forms follow the SMILES beside them. *: point of attachment. Phe(4-(CH2)5CO) = O=C([C@H](Cc1ccc(CCCCCC(=O)[*:3])cc1)N[*:1])[*:2]; Phe(3-(CH2)4CO) = O=C([C@H](Cc1cccc(CCCCC(=O)[*:3])c1)N[*:1])[*:2]; Phe(4-CF3) = N[C@@H](Cc1ccc(C(F)(F)F)cc1)C(=O)O; NMePhe(3-Cl) = CN[C@@H](Cc1cccc(Cl)c1)C(=O)O; NMeF = CN[C@@H](Cc1ccccc1)C(=O)O; NMeI = CC[C@H](C)[C@H](NC)C(=O)O; NMeL = CN[C@@H](CC(C)C)C(=O)O; NMeV = CN[C@H](C(=O)O)C(C)C; NMeA = CN[C@@H](C)C(=O)O; Piperidide = C1CCN(*)CC1; dNMeA = CN[C@H](C)C(=O)O; β3hA = C[C@H](N)CC(=O)O; Sar = CNCC(=O)O; tBu = CC(C)(C)*

On to `CC[C@H](C)[C@H]1C(=O)N[C@@H](C)CC(=O)N(C)[C@H](C)C(=O)N(C)[C@@H](CC(C)C)C(=O)N[C@@H]([C@@H](C)O)C(=O)N(C)CC(=O)N[C@@H](COC(C)(C)C)C(=O)N(C)[C@@H](CC(C)C)C(=O)N1C` [DP-826] (cyclo([NMeI][β3hA][dNMeA][NMeL]T[Sar]S(tBu)[NMeL])), for which the microsomal CLint at 1 uM in series [1] (setting [3]) is 213 µL/min/mg. Further, the Papp at 18 hours, 50 µM in series [2] (setting [4]) worked out at 30 ×10⁻⁶ cm/s.

On to `CC[C@H](C)[C@H]1C(=O)NCC(=O)N(C)[C@@H](C)C(=O)N[C@@H](CC(C)C)C(=O)N[C@@H](C)CC(=O)N(C)[C@@H](C)C(=O)N[C@@H](CC(C)C)C(=O)N(C)[C@@H](C)C(=O)N[C@@H]([C@@H](C)O)C(=O)N2CCC[C@H]2C(=O)N1C` [DP-827] (cyclo(G[NMeA]L[β3hA][NMeA]L[NMeA]TP[NMeI])), for which the microsomal CLint at 1 uM in series [1] (human, pH 7.4, CL NADPH(+)) stood at 49 µL/min/mg. Further, the Papp at 18 hours, 50 µM in series [2] (pH 6.5) worked out at 5.8 ×10⁻⁶ cm/s.

With `CC[C@H](C)[C@@H]1NC(=O)[C@H](CC(C)C)N(C)C(=O)[C@@H](C(C)C)NC(=O)C[C@H](C)NC(=O)[C@H](CC(C)C)N(C)C(=O)[C@H](C)N(C)C(=O)[C@H]([C@@H](C)O)NC(=O)[C@H](Cc2cccc(Cl)c2)N(C)C(=O)[C@H](C)N(C)C1=O` [DP-828] (cyclo(I[NMeA][NMePhe(3-Cl)]T[NMeA][NMeL][β3hA][dV][NMeL])), in series [1] (setting [3]), the microsomal CLint at 1 uM amounted to 154 µL/min/mg. In addition, the Papp at 18 hours, 50 µM in series [2] (setting [4]) is 42 ×10⁻⁶ cm/s.

On to `CC(C)C[C@@H]1NC(=O)[C@H](C)NC(=O)C[C@H](C)NC(=O)[C@H](C(C)C)N(C)C(=O)[C@H](CC(C)C)N(C)C(=O)[C@H]([C@@H](C)O)NC(=O)[C@H](Cc2ccc(C(F)(F)F)cc2)NC(=O)[C@H](C)N(C)C(=O)CNC(=O)[C@H](CC(C)C)N(C)C(=O)[C@H](C)N(C)C1=O` [DP-829] (cyclo(AL[NMeA][NMeL]G[NMeA][Phe(4-CF3)]T[NMeL][NMeV][β3hA])), for which the microsomal CLint at 1 uM in series [1] (setting [3]) was 65 µL/min/mg. Moreover, the Papp at 18 hours, 50 µM in series [2] (setting [4]) is 21 ×10⁻⁶ cm/s.

Take `C=C1CCC(=O)N(C)[C@@H](Cc2ccccc2)C(=O)N(C)CC(=O)N(C)[C@@H](CC(C)C)C(=O)N[C@@H]([C@@H](C)O)C(=O)N(C)[C@@H](C)C(=O)N(C)[C@@H](CC(C)C)C(=O)N(C)[C@@H]([C@@H](C)CC)C(=O)N[C@@H](COC(C)(C)C)C(=O)N[C@H](C(=O)N2CCCCC2)Cc2cccc1c2` [DP-831]: the microsomal CLint at 1 uM in series [1] (human, pH 7.4, CL NADPH(+)) was 683 µL/min/mg. The same compound displayed a Papp at 18 hours, 50 µM in series [2] (pH 6.5) of 55 ×10⁻⁶ cm/s.

In series [1] (human, pH 7.4, CL NADPH(+)), `C=C1CCC(=O)N(C)[C@@H](Cc2ccccc2)C(=O)N(C)[C@@H](CC(C)C)C(=O)N[C@@H]([C@@H](C)CC)C(=O)N(C)[C@@H](C)C(=O)N(C)[C@@H](Cc2ccccc2)C(=O)N[C@@H]([C@@H](C)O)C(=O)N(C)[C@@H](C)C(=O)N(C)[C@@H](CC(C)C)C(=O)N[C@H](C(=O)N2CCCCC2)Cc2cccc1c2` [DP-834] yielded a microsomal CLint at 1 uM of 501 µL/min/mg. Besides, in series [2] (pH 6.5), the Papp at 18 hours, 50 µM turned out to be 14 ×10⁻⁶ cm/s.

For the compound `CC[C@H](C)[C@@H]1NC(=O)[C@H](CC(C)C)N(C)C(=O)[C@H](Cc2ccccc2)N(C)C(=O)CCCCc2cccc(c2)C[C@@H](C(=O)N2CCCCC2)NC(=O)[C@H](CC(C)C)N(C)C(=O)[C@H](C)N(C)C(=O)[C@H]([C@@H](C)O)NC(=O)[C@H](Cc2ccccc2)N(C)C(=O)[C@H](C)N(C)C1=O` [DP-836] ([NMeF][NMeL]I[NMeA][NMeF]T[NMeA][NMeL][Phe(3-(CH2)4CO)]-Piperidide; lactam N-9), the microsomal CLint at 1 uM in series [1] (setting [3]) is 552 µL/min/mg. Further, the Papp at 18 hours, 50 µM in series [2] (setting [4]) came to 18 ×10⁻⁶ cm/s.

Turning to `CC(C)C[C@H]1C(=O)N[C@@H](COC(C)(C)C)C(=O)N(C)[C@@H](CC(C)C)C(=O)N[C@H](C(=O)N2CCCCC2)Cc2cccc(c2)CCCCC(=O)N(C)[C@@H](C)C(=O)N(C)[C@@H](Cc2ccccc2)C(=O)N(C)[C@@H](CC(C)C)C(=O)N[C@@H]([C@@H](C)O)C(=O)N(C)CC(=O)N1C` [DP-838] ([NMeA][NMeF][NMeL]T[Sar][NMeL]S(tBu)[NMeL][Phe(3-(CH2)4CO)]-Piperidide; lactam N-9), in series [1] (setting [3]), the microsomal CLint at 1 uM was 224 µL/min/mg. Moreover, in series [2] (setting [4]), the Papp at 18 hours, 50 µM amounted to 54 ×10⁻⁶ cm/s.

For the compound `CC[C@H](C)[C@H]1C(=O)N(C)[C@@H](CC(C)C)C(=O)N[C@H](C(=O)N2CCCCC2)Cc2cccc(c2)CCCCC(=O)N[C@@H]([C@@H](C)O)C(=O)N(C)[C@@H](C)C(=O)N(C)[C@@H](Cc2ccccc2)C(=O)N(C)[C@@H](Cc2ccccc2)C(=O)N(C)[C@@H](CC(C)C)C(=O)NCC(=O)N1C` [DP-840] (T[NMeA][NMeF][NMeF][NMeL]G[NMeI][NMeL][Phe(3-(CH2)4CO)]-Piperidide; lactam N-9), the microsomal CLint at 1 uM in series [1] (setting [3]) was determined as 357 µL/min/mg. The Papp at 18 hours, 50 µM in series [2] (setting [4]) amounted to 64 ×10⁻⁶ cm/s.

In the case of `CC(C)C[C@H]1C(=O)N[C@H](C(=O)N2CCCCC2)Cc2cccc(c2)CCCCC(=O)N[C@@H]([C@@H](C)O)C(=O)N(C)[C@@H](C)C(=O)N(C)[C@@H](Cc2ccccc2)C(=O)NCC(=O)N(C)[C@@H](Cc2ccccc2)C(=O)N(C)[C@@H](CC(C)C)C(=O)N(C)[C@@H](CC(C)C)C(=O)N1C` [DP-843] (T[NMeA][NMeF]G[NMeF][NMeL][NMeL][NMeL][Phe(3-(CH2)4CO)]-Piperidide; lactam N-9), the microsomal CLint at 1 uM in series [1] (setting [3]) came out at 505 µL/min/mg. In series [2] (setting [4]), the Papp at 18 hours, 50 µM is 31 ×10⁻⁶ cm/s.

Turning to `CC(C)C[C@H]1C(=O)N[C@H](C(=O)N2CCCCC2)Cc2cccc(c2)CCCCC(=O)N(C)[C@@H](Cc2ccccc2)C(=O)NCC(=O)N(C)[C@@H](Cc2ccccc2)C(=O)N(C)[C@@H](CC(C)C)C(=O)N(C)[C@@H](CC(C)C)C(=O)N1C` [DP-844] ([NMeF]G[NMeF][NMeL][NMeL][NMeL][Phe(3-(CH2)4CO)]-Piperidide; lactam N-7), the microsomal CLint at 1 uM in series [1] (human, pH 7.4, CL NADPH(+)) amounted to 356 µL/min/mg. Also, in series [2] (pH 6.5), the Papp at 18 hours, 50 µM was found to be 11 ×10⁻⁶ cm/s.

Compound `C=C1CCC(=O)N[C@@H](C)C(=O)N(C)[C@@H](CC(C)C)C(=O)N[C@@H]([C@@H](C)CC)C(=O)N(C)[C@@H](Cc2ccccc2)C(=O)N(C)[C@@H](CC(C)C)C(=O)N(C)[C@@H](C(C)C)C(=O)N[C@@H](Cc2ccccc2)C(=O)N[C@@H]([C@@H](C)O)C(=O)N[C@H](C(=O)N2CCCCC2)Cc2cccc1c2` [DP-846] came in with a microsomal CLint at 1 uM in series [1] (human, pH 7.4, CL NADPH(+)) of 310 µL/min/mg. The Papp at 18 hours, 50 µM in series [2] (pH 6.5) came out at 3.4 ×10⁻⁶ cm/s.

Regarding `CC[C@H](C)[C@H]1C(=O)N(C)[C@@H](CC(C)C)C(=O)N(C)[C@@H](Cc2ccccc2)C(=O)N[C@@H](CC(C)C)C(=O)N(C)[C@@H](C(C)C)C(=O)N[C@@H](Cc2ccccc2)C(=O)N[C@@H]([C@@H](C)O)C(=O)N[C@H](C(=O)N2CCCCC2)Cc2ccc(cc2)CCCCCC(=O)N[C@@H](C)C(=O)N1C` [DP-847] (A[NMeI][NMeL][NMeF]L[NMeV]FT[Phe(4-(CH2)5CO)]-Piperidide; lactam N-9), the microsomal CLint at 1 uM in series [1] (setting [3]) stood at 329 µL/min/mg. Besides, in series [2] (setting [4]), the Papp at 18 hours, 50 µM came to 3.3 ×10⁻⁶ cm/s.

`CC(C)C[C@H]1C(=O)N[C@@H](COC(C)(C)C)C(=O)N(C)[C@@H](Cc2ccccc2)C(=O)N(C)[C@@H](C)C(=O)N[C@@H](Cc2ccccc2)C(=O)N(C)[C@@H](C(C)C)C(=O)N[C@H](C(=O)N2CCCCC2)Cc2ccc(cc2)CCCCCC(=O)N[C@@H]([C@@H](C)O)C(=O)NCC(=O)N1C` [DP-848] (TG[NMeL]S(tBu)[NMeF][NMeA]F[NMeV][Phe(4-(CH2)5CO)]-Piperidide; lactam N-9): the microsomal CLint at 1 uM in series [1] (setting [3]) stood at 148 µL/min/mg. Also, in series [2] (setting [4]), the Papp at 18 hours, 50 µM amounted to 30 ×10⁻⁶ cm/s.

The values are drawn from patent publication US9409952B2, “Peptide-compound cyclization method” (Chugai Seiyaku Kabushiki Kaisha, priority 2011, dated 2016).
